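Compound exposure: 48 hours, 5 concentrations, 96-well plates. Here, GI50 denotes the concentration required for 50% inhibition of growth. Definition used: TGI = concentration required for complete inhibition of growth.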
What was measured:
Test in all cases: NCI-60 cell line screen, 48 h
CCRF-CEM leukemia = tested on: CCRF-CEM leukemia
U251 CNS = tested on: U251 CNS
TK-10 renal = tested on: TK-10 renal
SF-295 CNS = tested on: SF-295 CNS
HCT-116 colon = tested on: HCT-116 colon
SNB-75 CNS = tested on: SNB-75 CNS
RXF 393 renal = tested on: RXF 393 renal
LOX IMVI melanoma = tested on: LOX IMVI melanoma
NCI-H460 lung = tested on: NCI-H460 lung
HOP-62 NSCLC = tested on: HOP-62 NSCLC
NCI-H522 lung = tested on: NCI-H522 lung
OVCAR-4 ovarian = tested on: OVCAR-4 ovarian
786-0 renal = tested on: 786-0 renal
RPMI-8226 leukemia = tested on: RPMI-8226 leukemia
OVCAR-5 ovarian = tested on: OVCAR-5 ovarian
SK-OV-3 ovarian = tested on: SK-OV-3 ovarian
NCI/ADR-RES ovarian = tested on: NCI/ADR-RES ovarian
NCI-H23 lung = tested on: NCI-H23 lung
UACC-257 melanoma = tested on: UACC-257 melanoma
SNB-19 CNS = tested on: SNB-19 CNS
A549 NSCLC = tested on: A549 NSCLC
NCI-H226 lung = tested on: NCI-H226 lung
ACHN renal = tested on: ACHN renal
CAKI-1 renal = tested on: CAKI-1 renal
MDA-MB-231 breast = tested on: MDA-MB-231 breast
EKVX NSCLC = tested on: EKVX NSCLC
SK-MEL-2 melanoma = tested on: SK-MEL-2 melanoma
M14 melanoma = tested on: M14 melanoma
MALME-3M melanoma = tested on: MALME-3M melanoma
A498 renal = tested on: A498 renal
SK-MEL-28 melanoma = tested on: SK-MEL-28 melanoma
HOP-92 NSCLC = tested on: HOP-92 NSCLC
SW-620 colon = tested on: SW-620 colon
SR leukemia = tested on: SR leukemia
PC-3 prostate = tested on: PC-3 prostate
SF-539 CNS = tested on: SF-539 CNS
HCT-15 colon = tested on: HCT-15 colon
OVCAR-8 ovarian = tested on: OVCAR-8 ovarian
BT-549 breast = tested on: BT-549 breast
SK-MEL-5 melanoma = tested on: SK-MEL-5 melanoma
T-47D breast = tested on: T-47D breast
KM12 colon = tested on: KM12 colon
MDA-MB-435 = tested on: MDA-MB-435
OVCAR-3 ovarian = tested on: OVCAR-3 ovarian
SF-268 CNS = tested on: SF-268 CNS
UO-31 renal = tested on: UO-31 renal
MCF7 breast = tested on: MCF7 breast
HT29 colon = tested on: HT29 colon
HL-60(TB) leukemia = tested on: HL-60(TB) leukemia
COLO 205 colon = tested on: COLO 205 colon
HS 578T breast = tested on: HS 578T breast
HCC-2998 colon = tested on: HCC-2998 colon
K-562 leukemia = tested on: K-562 leukemia
MOLT-4 leukemia = tested on: MOLT-4 leukemia
DU-145 prostate = tested on: DU-145 prostate
UACC-62 melanoma = tested on: UACC-62 melanoma

Compound: CCc1nc2cc(/C=C/C(=O)NO)ccc2c(=O)n1CCc1ccc(OC)cc1
- GI50 (CCRF-CEM leukemia): 3.17 µM
- TGI (CCRF-CEM leukemia): > 100 µM
- GI50 (U251 CNS): 1990 nM
- TGI (U251 CNS): 4.87 µM
- GI50 (TK-10 renal): 1600 nM
- TGI (TK-10 renal): 5.79 µM
- GI50 (SF-295 CNS): 2160 nM
- TGI (SF-295 CNS): 5.39 µM
- GI50 (HCT-116 colon): 1590 nM
- TGI (HCT-116 colon): 9.51 µM
- GI50 (SNB-75 CNS): 2620 nM
- TGI (SNB-75 CNS): 33.2 µM
- GI50 (RXF 393 renal): 1740 nM
- TGI (RXF 393 renal): 4.74 µM
- GI50 (LOX IMVI melanoma): 1680 nM
- TGI (LOX IMVI melanoma): 3.19 µM
- GI50 (NCI-H460 lung): 1830 nM
- TGI (NCI-H460 lung): 10.1 µM
- GI50 (HOP-62 NSCLC): 2450 nM
- TGI (HOP-62 NSCLC): 7.68 µM
- GI50 (NCI-H522 lung): 1430 nM
- TGI (NCI-H522 lung): 4.66 µM
- GI50 (OVCAR-4 ovarian): 2960 nM
- TGI (OVCAR-4 ovarian): 58.7 µM
- GI50 (786-0 renal): 2310 nM
- TGI (786-0 renal): 6.28 µM
- GI50 (RPMI-8226 leukemia): 2380 nM
- TGI (RPMI-8226 leukemia): 56.1 µM
- GI50 (OVCAR-5 ovarian): 2500 nM
- TGI (OVCAR-5 ovarian): 30 µM
- GI50 (SK-OV-3 ovarian): 2420 nM
- TGI (SK-OV-3 ovarian): 6.11 µM
- GI50 (NCI/ADR-RES ovarian): 1350 nM
- TGI (NCI/ADR-RES ovarian): 12.3 µM
- GI50 (NCI-H23 lung): 2400 nM
- TGI (NCI-H23 lung): 7.89 µM
- GI50 (UACC-257 melanoma): 2930 nM
- TGI (UACC-257 melanoma): 9.33 µM
- GI50 (SNB-19 CNS): 3.21 µM
- TGI (SNB-19 CNS): 21.4 µM
- GI50 (A549 NSCLC): 3.56 µM
- TGI (A549 NSCLC): 15.1 µM
- GI50 (NCI-H226 lung): 2870 nM
- TGI (NCI-H226 lung): 17.3 µM
- GI50 (ACHN renal): 1850 nM
- TGI (ACHN renal): 4.36 µM
- GI50 (CAKI-1 renal): 2980 nM
- TGI (CAKI-1 renal): 10.7 µM
- GI50 (MDA-MB-231 breast): 2310 nM
- TGI (MDA-MB-231 breast): 7.66 µM
- GI50 (EKVX NSCLC): 3.91 µM
- TGI (EKVX NSCLC): 43.9 µM
- GI50 (SK-MEL-2 melanoma): 3.66 µM
- TGI (SK-MEL-2 melanoma): 24.9 µM
- GI50 (M14 melanoma): 2880 nM
- TGI (M14 melanoma): 10.4 µM
- GI50 (MALME-3M melanoma): 1530 nM
- TGI (MALME-3M melanoma): 8.28 µM
- GI50 (A498 renal): 1170 nM
- TGI (A498 renal): 3.39 µM
- GI50 (SK-MEL-28 melanoma): 3.31 µM
- TGI (SK-MEL-28 melanoma): 15.1 µM
- GI50 (HOP-92 NSCLC): 1900 nM
- TGI (HOP-92 NSCLC): 5.7 µM
- GI50 (SW-620 colon): 1930 nM
- TGI (SW-620 colon): 13 µM
- GI50 (SR leukemia): 1940 nM
- TGI (SR leukemia): > 100 µM
- GI50 (PC-3 prostate): 3.32 µM
- TGI (PC-3 prostate): > 100 µM
- GI50 (SF-539 CNS): 1910 nM
- TGI (SF-539 CNS): 6.29 µM
- GI50 (HCT-15 colon): 3.24 µM
- TGI (HCT-15 colon): > 100 µM
- GI50 (OVCAR-8 ovarian): 2270 nM
- TGI (OVCAR-8 ovarian): 15.5 µM
- GI50 (BT-549 breast): 4.02 µM
- TGI (BT-549 breast): 34.6 µM
- GI50 (SK-MEL-5 melanoma): 1960 nM
- TGI (SK-MEL-5 melanoma): 5.09 µM
- GI50 (T-47D breast): 1570 nM
- TGI (T-47D breast): 7.13 µM
- GI50 (KM12 colon): 3.42 µM
- TGI (KM12 colon): > 100 µM
- GI50 (MDA-MB-435): 2700 nM
- TGI (MDA-MB-435): 42.6 µM
- GI50 (OVCAR-3 ovarian): 2030 nM
- TGI (OVCAR-3 ovarian): 7.19 µM
- GI50 (SF-268 CNS): 2440 nM
- TGI (SF-268 CNS): 13.1 µM
- GI50 (UO-31 renal): 1500 nM
- TGI (UO-31 renal): 5.13 µM
- GI50 (MCF7 breast): 2380 nM
- TGI (MCF7 breast): 17.7 µM
- GI50 (HT29 colon): 2310 nM
- TGI (HT29 colon): 49.5 µM
- GI50 (HL-60(TB) leukemia): 3.47 µM
- TGI (HL-60(TB) leukemia): > 100 µM
- GI50 (COLO 205 colon): 1940 nM
- TGI (COLO 205 colon): 5.13 µM
- GI50 (HS 578T breast): 2130 nM
- TGI (HS 578T breast): 34.3 µM
- GI50 (HCC-2998 colon): 4.06 µM
- TGI (HCC-2998 colon): 62.1 µM
- GI50 (K-562 leukemia): 3.07 µM
- TGI (K-562 leukemia): > 100 µM
- GI50 (MOLT-4 leukemia): 2500 nM
- TGI (MOLT-4 leukemia): > 100 µM
- GI50 (DU-145 prostate): 2190 nM
- TGI (DU-145 prostate): 10.3 µM
- GI50 (UACC-62 melanoma): 1590 nM
- TGI (UACC-62 melanoma): 4.33 µM
